Data as given in patent US10793568B2, “Hormone receptor modulators for treating metabolic conditions and disorders” (ARDELYX, INC., priority 2016, dated 2020).

How the values were obtained:
[1] = biological target: human Farnesoid X receptor ligand-binding domain/Gal4 DNA binding domain chimera (Homo sapiens (Human), UniProt Q96RI1); test: Cell-based assay of FXR activation (FXR-UAS-bla HEK 293T beta-lactamase reporter); details: cellular FXR beta-lactamase reporter assay; for Emax: HEK-293T, extent of activation relative to GW4064, read-out: % Efficacy; for EC50: FXR-UAS-bla HEK 293T cells, 16 h, pEC50 = -log EC50
Chain of human Farnesoid X receptor ligand-binding domain/Gal4 DNA binding domain chimera (Q96RI1 262-486, change not shown): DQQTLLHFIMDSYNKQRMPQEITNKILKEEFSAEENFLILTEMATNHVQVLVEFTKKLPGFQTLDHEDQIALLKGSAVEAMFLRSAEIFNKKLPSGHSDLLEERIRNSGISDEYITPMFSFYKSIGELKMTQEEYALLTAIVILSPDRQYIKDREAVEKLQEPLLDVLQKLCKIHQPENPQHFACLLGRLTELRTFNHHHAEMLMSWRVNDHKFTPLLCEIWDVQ
Chain of human Farnesoid X receptor ligand-binding domain/Gal4 DNA binding domain chimera (P04386 1-147 partner): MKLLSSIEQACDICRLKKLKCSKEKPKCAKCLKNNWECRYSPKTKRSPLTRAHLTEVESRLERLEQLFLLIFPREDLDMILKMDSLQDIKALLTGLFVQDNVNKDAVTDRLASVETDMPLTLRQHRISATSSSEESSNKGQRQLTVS
In short: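 HEK 293T cells stably expressing a Gal4-fused human FXR LBD and a UAS-driven beta-lactamase reporter were incubated with serially diluted compounds for 16 h at 37 °C in phenol red-free DMEM with 2% charcoal-stripped FBS. CCF4 FRET read-out: excitation 409 nm, emission 447 nm. pEC50 comes from a 3-parameter logistic fit, and efficacy is given as % of GW4064.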

[2] = biological target: ligand binding domain of human FXR (Homo sapiens (Human), UniProt Q96RI1); test: FXR ligand binding assay (LanthaScreen TR-FRET, SRC2-2 peptide recruitment); details: for pEC50: -log EC50, concentration required to produce 50% activation; for Emax: extent of activation relative to GW4064, read-out: % Efficacy
Chain of ligand binding domain of human FXR (Q96RI1 262-486): as the sequence (Q96RI1 262-486, change not shown) above

Row | SMILES | Emax [1] | EC50 [1] | pEC50 [2] | Emax [2]
1 | O=C(O)C1CCc2cc(N3C(=O)[C@@H]4C[C@H]3C[C@H]4OCc3c(-c4c(Cl)cccc4Cl)noc3C3CC3)ccc21 (stereo partly drawn) [Compound I-312, 5-[(1S,4R,5R)-5-{[5-cyclopropyl-3-(2,6-dichlorophenyl)-1,2-oxazol-4-yl]methoxy}-3-oxo-2-azabicyclo[2.2.1]heptan-2-yl]-2,3-dihydro-1H-indene-1-carboxylic Acid] | 134% | 20 nM | 7 | 149%
2 | O=C(O)C1Cc2ccc(N3C(=O)[C@@H]4C[C@H]3C[C@H]4OCc3c(-c4c(Cl)cccc4Cl)noc3C3CC3)cc2C1 (stereo partly drawn) [Compound I-313, 5-[(1S,4R,5R)-5-{[5-cyclopropyl-3-(2,6-dichlorophenyl)-1,2-oxazol-4-yl]methoxy}-3-oxo-2-azabicyclo[2.2.1]heptan-2-yl]-2,3-dihydro-1H-indene-2-carboxylic Acid] | 112% | 25.1 nM | 7 | 140%
3 | O=C(O)c1ccc(N2C(=O)[C@@H]3C[C@H]2C[C@H]3OCc2c(-c3c(Cl)cccc3Cl)noc2C2CC2)cc1F [Compound I-314, 4-[(1S,4R,5R)-5-{[5-cyclopropyl-3-(2,6-dichlorophenyl)-1,2-oxazol-4-yl]methoxy}-3-oxo-2-azabicyclo[2.2.1]heptan-2-yl]-2-fluorobenzoic Acid] | 103% | 2.51 nM | 8.4 | 145%
4 | O=C(O)c1ccc(N2C(=O)[C@@H]3C[C@H]2C[C@H]3OCc2c(-c3c(Cl)cccc3Cl)noc2C2CC2)c(F)c1 [Compound I-315, 4-[(1S,4R,5R)-5-{[5-cyclopropyl-3-(2,6-dichlorophenyl)-1,2-oxazol-4-yl]methoxy}-3-oxo-2-azabicyclo[2.2.1]heptan-2-yl]-3-fluorobenzoic Acid] | 106% | 25.1 nM | 7.4 | 157%
5 | Cc1cc(N2C(=O)[C@@H]3C[C@H]2C[C@H]3OCc2c(-c3c(Cl)cccc3Cl)noc2C2CC2)ccc1C(=O)O [Compound I-316, 4-[(1S,4R,5R)-5-{[5-cyclopropyl-3-(2,6-dichlorophenyl)-1,2-oxazol-4-yl]methoxy}-3-oxo-2-azabicyclo[2.2.1]heptan-2-yl]-2-methylbenzoic Acid] | 109% | 7.94 nM | 7.6 | 152%
6 | Cc1cc(C(=O)O)ccc1N1C(=O)[C@@H]2C[C@H]1C[C@H]2OCc1c(-c2c(Cl)cccc2Cl)noc1C1CC1 [Compound I-317, 4-[(1S,4R,5R)-5-{[5-cyclopropyl-3-(2,6-dichlorophenyl)-1,2-oxazol-4-yl]methoxy}-3-oxo-2-azabicyclo[2.2.1]heptan-2-yl]-3-methylbenzoic Acid] | 126% | 100 nM | 6.7 | 131%
7 | CCc1cc(N2C(=O)[C@@H]3C[C@H]2C[C@H]3OCc2c(-c3c(Cl)cccc3Cl)noc2C2CC2)ccc1C(=O)O [Compound I-318, 4-[(1S,4R,5R)-5-{[5-cyclopropyl-3-(2,6-dichlorophenyl)-1,2-oxazol-4-yl]methoxy}-3-oxo-2-azabicyclo[2.2.1]heptan-2-yl]-2-ethylbenzoic Acid] | 116% | 6.31 nM | 7.2 | 127%
8 | O=C(O)c1ccc(N2C(=O)[C@@H]3C[C@H]2C[C@H]3OCc2c(-c3c(Cl)cccc3Cl)noc2C2CC2)cc1C1CC1 [Compound I-319, 2-cyclopropyl-4-[(1S,4R,5R)-5-{[5-cyclopropyl-3-(2,6-dichlorophenyl)-1,2-oxazol-4-yl]methoxy}-3-oxo-2-azabicyclo[2.2.1]heptan-2-yl]benzoic Acid] | 113% | 10 nM | 7.4 | 118%
9 | O=C(O)c1ccc(C2CC2)cc1N1C(=O)[C@@H]2C[C@H]1C[C@H]2OCc1c(-c2c(Cl)cccc2Cl)noc1C1CC1 [Compound I-320, 4-cyclopropyl-2-[(1S,4R,5R)-5-{[5-cyclopropyl-3-(2,6-dichlorophenyl)-1,2-oxazol-4-yl]methoxy}-3-oxo-2-azabicyclo[2.2.1]heptan-2-yl]benzoic Acid] | 110% | 20 nM | 7.5 | 114%
10 | CC1(C)CC(S(=O)(=O)NC(=O)c2ccc(N3C(=O)[C@@H]4C[C@H]3C[C@H]4OCc3c(-c4c(Cl)cccc4Cl)noc3C3CC3)cc2)CCO1 (stereo partly drawn) [Compound I-329, 4-[(1S,4R,5R)-5-{[5-cyclopropyl-3-(2,6-dichlorophenyl)-1,2-oxazol-4-yl]methoxy}-3-oxo-2-azabicyclo[2.2.1]heptan-2-yl]-N-[(2,2-dimethyloxan-4-yl)sulfonyl]benzamide] | 117% | 0.794 nM | 9 | 162%
11 | CC1(C)CC(S(=O)(=O)NC(=O)c2ccc(N3C(=O)[C@@H]4C[C@H]3C[C@H]4OCc3c(-c4c(Cl)cccc4Cl)noc3C3CC3)cc2F)CCO1 (stereo partly drawn) [Compound I-330, 4-[(1S,4R,5R)-5-{[5-cyclopropyl-3-(2,6-dichlorophenyl)-1,2-oxazol-4-yl]methoxy}-3-oxo-2-azabicyclo[2.2.1]heptan-2-yl]-N-[(2,2-dimethyloxan-4-yl)sulfonyl]-2-fluorobenzamide] | 120% | 0.158 nM | 8.8 | 156%
12 | O=C(NS(=O)(=O)C1CC1)c1ccc(N2C(=O)[C@@H]3C[C@H]2C[C@H]3OCc2c(-c3c(Cl)cccc3Cl)noc2C2CC2)cc1F [Compound I-331, 4-((1S,4R,5R)-5-((5-cyclopropyl-3-(2,6-chlorophenyl)isoxazol-4-yl)methoxy)-3-oxo-2-azabicyclo[2.2.1]heptan-2-yl)-N-(cyclopropylsulfonyl)-2-fluorobenzamiide] | 107% | 0.316 nM | 8.7 | 180%
13 | O=C(NS(=O)(=O)C1CCOCC1)c1ccc(N2C(=O)[C@@H]3C[C@H]2C[C@H]3OCc2c(-c3c(Cl)cccc3Cl)noc2C2CC2)cc1F [Compound I-332, 4-((1S,4R,5R)-5-((5-cyclopropyl-3-(2,6-dichlorophenyl)isoxazol-4-yl)methoxy)-3-oxo-2-azabicyclo[2.2.1]heptan-2-yl)-2-fluoro-N-((tetrahydro-2H-pyran-4-yl)sulfonyl)benzamide] | 100% | 0.316 nM | 8.8 | 150%
14 | O=C(NS(=O)(=O)CC1CCOCC1)c1ccc(N2C(=O)[C@@H]3C[C@H]2C[C@H]3OCc2c(-c3c(Cl)cccc3Cl)noc2C2CC2)cc1F [Compound I-333, 4-((1S,4R,5R)-5-((5-cyclopropyl-3-(2,6-dichlorophenyl)isoxazol-4-yl)methoxy)-3-oxo-2-azabicyclo[2.2.1]heptan-2-yl)-2-fluoro-N-(((tetrahydro-2H-pyran-4-yl)methyl)sulfonyl)benzamide] | 112% | 0.501 nM | 8.8 | 158%
15 | O=C(NS(=O)(=O)C1CCOC1)c1ccc(N2C(=O)[C@@H]3C[C@H]2C[C@H]3OCc2c(-c3c(Cl)cccc3Cl)noc2C2CC2)cc1F (stereo partly drawn) [Compound I-334, 4-((1S,4R,5R)-5-((5-cyclopropyl-3-(2,6-dichlorophenyl)isoxazol-4-yl)methoxy)-3-oxo-2-azabicyclo[2.2.1]heptan-2-yl)-2-fluoro-N-((tetrahydrofuran-3-yl)sulfonyl)benzamide] | 104% | 1 nM | 9 | 180%
16 | O=C(NS(=O)(=O)CC1CCOC1)c1ccc(N2C(=O)[C@@H]3C[C@H]2C[C@H]3OCc2c(-c3c(Cl)cccc3Cl)noc2C2CC2)cc1F (stereo partly drawn) [Compound I-335, 4-((1S,4R,5R)-5-((5-cyclopropyl-3-(2,6-dichlorophenyl)isoxazol-4-yl)methoxy)-3-oxo-2-azabicyclo[2.2.1]heptan-2-yl)-2-fluoro-N-(((tetrahydrofuran-3-yl)methyl)sulfonyl)benzamide] | 108% | 1 nM | 8.8 | 172%
17 | O=C(NS(=O)(=O)CCC1CCOC1)c1ccc(N2C(=O)[C@@H]3C[C@H]2C[C@H]3OCc2c(-c3c(Cl)cccc3Cl)noc2C2CC2)cc1F (stereo partly drawn) [Compound I-336, 4-((1S,4R,5R)-5-((5-cyclopropyl-3-(2,6-dichlorophenyl)isoxazol-4-yl)methoxy)-3-oxo-2-azabicyclo[2.2.1]heptan-2-yl)-2-fluoro-N-((2-(tetrahydrofuran-3-yl)ethyl)sulfonyl)benzamide] | 125% | 2.51 nM | 8.6 | 182%
18 | O=C(NS(=O)(=O)C1CC1)c1ccc(N2C(=O)[C@@H]3C[C@H]2C[C@H]3OCc2c(-c3c(Cl)cccc3Cl)noc2C2CC2)cc1 [Compound I-337, 4-((1S,4R,5R)-5-((5-cyclopropyl-3-(2,6-dichlorophenyl)isoxazol-4-yl)methoxy)-3-oxo-2-azabicyclo[2.2.1]heptan-2-yl)-N-(cyclopropylsulfonyl)benzamide] | 110% | 2 nM | 8.6 | 174%
19 | O=C(NS(=O)(=O)C1CCOCC1)c1ccc(N2C(=O)[C@@H]3C[C@H]2C[C@H]3OCc2c(-c3c(Cl)cccc3Cl)noc2C2CC2)cc1 [Compound I-338] | 106% | 15.8 nM | 8.9 | 158%
20 | O=C(NS(=O)(=O)CC1CCOCC1)c1ccc(N2C(=O)[C@@H]3C[C@H]2C[C@H]3OCc2c(-c3c(Cl)cccc3Cl)noc2C2CC2)cc1 [Compound I-339, 4-((1S,4R,5R)-5-((5-cyclopropyl-3-(2,6-dichlorophenyl)isoxazol-4-yl)methoxy)-3-oxo-2-azabicyclo[2.2.1]heptan-2-yl)-N-(((tetrahydro-2H-pyran-4-yl)methyl)sulfonyl)benzamide] | 118% | 5.01 nM | 8.6 | 198%
